Measurements reported in publication PMC5218480 (PLoS ONE, 2017).

Test system: MV-4-11 cells
Assay: Gene expression microarray analysis (Affymetrix PrimeView) and GSEA
Assay type: cell-based, human
Design: RFU PODN (11730768_x_at) / Fold change /veh PODN (11730768_x_at) / RFU LINC00158 (11744669_a_at) / Fold change /veh LINC00158 (11744669_a_at) / RFU DUSP10 (11751237_a_at) / Fold change /veh DUSP10 (11751237_a_at) / RFU ID3 (11757404_x_at) / Fold change /veh ID3 (11757404_x_at) / RFU PLEKHG5 (11737974_s_at) / Fold change /veh PLEKHG5 (11737974_s_at) / RFU LRRC4B (11730491_at) / Fold change /veh LRRC4B (11730491_at) / RFU GIMAP4 (11747438_a_at) / Fold change /veh GIMAP4 (11747438_a_at) / RFU KRT8 (11758183_x_at) / Fold change /veh KRT8 (11758183_x_at) / RFU CNN1 (11734310_a_at) / Fold change /veh CNN1 (11734310_a_at) / RFU VPS37D (11726825_at) / Fold change /veh VPS37D (11726825_at) / RFU C10orf10 (11716522_x_at) / Fold change /veh C10orf10 (11716522_x_at) / RFU KIR2DL2 /// KIR2DL4 /// KIR2DL5A /// KIR2DL5B /// KIR2DS1 /// KIR2DS2 /// KIR2DS3 /// KIR2DS4 /// KIR3DL3 /// KIR3DL3 /// KIR3DS1 (11738374_at) / Fold change /veh KIR2DL2 /// KIR2DL4 /// KIR2DL5A /// KIR2DL5B /// KIR2DS1 /// KIR2DS2 /// KIR2DS3 /// KIR2DS4 /// KIR3DL3 /// KIR3DL3 /// KIR3DS1 (11738374_at) / RFU C1QL1 (11718748_at) / Fold change /veh C1QL1 (11718748_at) / RFU TMPRSS4 (11747572_a_at) / Fold change /veh TMPRSS4 (11747572_a_at) / RFU HAMP (11756126_x_at) / Fold change /veh HAMP (11756126_x_at) / RFU RNFT2 (11725882_a_at) / Fold change /veh RNFT2 (11725882_a_at) / RFU NR4A2 (11747474_a_at) / Fold change /veh NR4A2 (11747474_a_at) / RFU ABCC12 (11746883_a_at) / Fold change /veh ABCC12 (11746883_a_at) / RFU TMEM136 (11760407_x_at) / Fold change /veh TMEM136 (11760407_x_at) / RFU CLDN22 /// WWC2 (11732394_at) / Fold change /veh CLDN22 /// WWC2 (11732394_at) / RFU HLA-DPB1 (11760878_x_at) / Fold change /veh HLA-DPB1 (11760878_x_at) / RFU SPINT1 (11716480_a_at) / Fold change /veh SPINT1 (11716480_a_at) / RFU GAP43 (11754022_s_at) / Fold change /veh GAP43 (11754022_s_at) / RFU A4GNT (11735810_at) / Fold change /veh A4GNT (11735810_at) / RFU PRB3 (11715151_x_at) / Fold change /veh PRB3 (11715151_x_at) / RFU TUBB4B (11761932_at) / Fold change /veh TUBB4B (11761932_at) / RFU CAPN14 (11732068_a_at) / Fold change /veh CAPN14 (11732068_a_at) / RFU TMCC2 (11721928_a_at) / Fold change /veh TMCC2 (11721928_a_at) / RFU IRGQ (11745062_a_at) / Fold change /veh IRGQ (11745062_a_at) / RFU FAM174B (11720279_a_at) / Fold change /veh FAM174B (11720279_a_at) / RFU TMPRSS4 (11748680_a_at) / Fold change /veh TMPRSS4 (11748680_a_at) / RFU FAM212B (11763350_a_at) / Fold change /veh FAM212B (11763350_a_at) / RFU PLEKHG5 (11743358_a_at) / Fold change /veh PLEKHG5 (11743358_a_at) / RFU ZSCAN30 (11745921_a_at) / Fold change /veh ZSCAN30 (11745921_a_at) / RFU CMKLR1 (11741424_a_at) / Fold change /veh CMKLR1 (11741424_a_at) / RFU LOC101060620 /// MAPK8IP1 (11723275_at) / Fold change /veh LOC101060620 /// MAPK8IP1 (11723275_at) / RFU SPTSSB (11747773_x_at) / Fold change /veh SPTSSB (11747773_x_at) / RFU PRSS12 (11739890_at) / Fold change /veh PRSS12 (11739890_at) / RFU BIN1 (11741810_x_at) / Fold change /veh BIN1 (11741810_x_at) / RFU WNT11 (11732464_a_at) / Fold change /veh WNT11 (11732464_a_at) / RFU C10orf10 (11716521_a_at) / Fold change /veh C10orf10 (11716521_a_at) / RFU C5orf56 (11738089_at) / Fold change /veh C5orf56 (11738089_at) / RFU CYB561 (11721691_x_at) / Fold change /veh CYB561 (11721691_x_at) / RFU ANKRD19P (11752326_a_at) / Fold change /veh ANKRD19P (11752326_a_at) / RFU OR2T12 /// OR2T33 /// OR2T8 (11738714_s_at) / Fold change /veh OR2T12 /// OR2T33 /// OR2T8 (11738714_s_at) / RFU VCAN (11748164_a_at) / Fold change /veh VCAN (11748164_a_at) / RFU JSRP1 (11732532_at) / Fold change /veh JSRP1 (11732532_at) / RFU KRTAP10-11 (11738290_x_at) / Fold change /veh KRTAP10-11 (11738290_x_at) / RFU MYO3A (11730013_a_at) / Fold change /veh MYO3A (11730013_a_at) / RFU EBF3 (11725865_a_at) / Fold change /veh EBF3 (11725865_a_at) / RFU CAMK2N1 (11719241_x_at) / Fold change /veh CAMK2N1 (11719241_x_at) / RFU C5orf56 (11738088_a_at) / Fold change /veh C5orf56 (11738088_a_at) / RFU OLFML3 (11715873_a_at) / Fold change /veh OLFML3 (11715873_a_at) / RFU LOC100653217 /// NTM (11731650_a_at) / Fold change /veh LOC100653217 /// NTM (11731650_a_at) / RFU MAPK11 (11762145_a_at) / Fold change /veh MAPK11 (11762145_a_at) / RFU FIZ1 (11724087_x_at) / Fold change /veh FIZ1 (11724087_x_at) / RFU OASL (11726364_x_at) / Fold change /veh OASL (11726364_x_at) / RFU SOX15 (11748057_x_at) / Fold change /veh SOX15 (11748057_x_at) / RFU CD79A (11719716_a_at) / Fold change /veh CD79A (11719716_a_at) / RFU HIST1H1D (11736915_at) / Fold change /veh HIST1H1D (11736915_at) / RFU CASKIN2 (11723855_a_at) / Fold change /veh CASKIN2 (11723855_a_at) / RFU LOC730098 (11760151_x_at) / Fold change /veh LOC730098 (11760151_x_at) / RFU OR4N2 (11742367_at) / Fold change /veh OR4N2 (11742367_at) / RFU PRRT2 (11749266_a_at) / Fold change /veh PRRT2 (11749266_a_at) / RFU SNX32 (11753110_a_at) / Fold change /veh SNX32 (11753110_a_at) / RFU CDHR5 (11726645_a_at) / Fold change /veh CDHR5 (11726645_a_at) / RFU RCAN1 (11760418_a_at) / Fold change /veh RCAN1 (11760418_a_at) / RFU FAM167A (11723789_a_at) / Fold change /veh FAM167A (11723789_a_at) / RFU FAM26E (11764081_at) / Fold change /veh FAM26E (11764081_at) / RFU ISYNA1 (11749810_s_at) / Fold change /veh ISYNA1 (11749810_s_at) / RFU ACY1 (11761880_at) / Fold change /veh ACY1 (11761880_at) / RFU 11764098_at / Fold change /veh 11764098_at / RFU SAMD14 (11745864_x_at) / Fold change /veh SAMD14 (11745864_x_at) / RFU NPB (11741838_a_at) / Fold change /veh NPB (11741838_a_at) / RFU TMPRSS6 (11731388_a_at) / Fold change /veh TMPRSS6 (11731388_a_at) / RFU KRTAP10-2 (11738614_at) / Fold change /veh KRTAP10-2 (11738614_at) / RFU ARHGAP8 /// PRR5-ARHGAP8 (11727945_x_at) / Fold change /veh ARHGAP8 /// PRR5-ARHGAP8 (11727945_x_at) / RFU KRTAP5-7 /// NADSYN1 (11734609_at) / Fold change /veh KRTAP5-7 /// NADSYN1 (11734609_at) / RFU RASL12 (11751679_a_at) / Fold change /veh RASL12 (11751679_a_at) / RFU CDKN2B (11736163_a_at) / Fold change /veh CDKN2B (11736163_a_at) / RFU PRF1 (11729649_at) / Fold change /veh PRF1 (11729649_at) / RFU, ZNF638 /// ZNF638-IT1 / Fold change vs veh, ZNF638 /// ZNF638-IT1 / RFU, PANK3 / Fold change vs veh, PANK3 / RFU, SH3YL1 / Fold change vs veh, SH3YL1 / RFU, ZEB2 / Fold change vs veh, ZEB2 / RFU, NRIP1 / Fold change vs veh, NRIP1 / RFU, PTTG1IP / Fold change vs veh, PTTG1IP / RFU, CAPN2 / Fold change vs veh, CAPN2 / RFU, MED14 / Fold change vs veh, MED14 / RFU, SNORA58 / Fold change vs veh, SNORA58 / RFU, C1orf63 / Fold change vs veh, C1orf63 / RFU, LRRFIP1 / Fold change vs veh, LRRFIP1 / RFU, NDUFAF7 / Fold change vs veh, NDUFAF7 / RFU, SLC12A2 / Fold change vs veh, SLC12A2 / RFU, IBTK / Fold change vs veh, IBTK / RFU, ESF1 / Fold change vs veh, ESF1 / Fold change vs veh, TMEM50B / RFU, TAOK1 / Fold change vs veh, TAOK1 / RFU, ACBD3 / Fold change vs veh, ACBD3 / RFU, TMA16 / Fold change vs veh, TMA16 / RFU, RWDD3 / Fold change vs veh, RWDD3 / RFU, BCAT1 / Fold change vs veh, BCAT1 / RFU, EDEM3 / Fold change vs veh, EDEM3 / RFU, TMEM33 / Fold change vs veh, TMEM33 / RFU, WDR75 / Fold change vs veh, WDR75 / RFU, AHCTF1 / Fold change vs veh, AHCTF1 / RFU, TFRC / Fold change vs veh, TFRC / RFU, ZDHHC17 / Fold change vs veh, ZDHHC17 / RFU, NOM1 / Fold change vs veh, NOM1 / RFU, ARL8B / Fold change vs veh, ARL8B / RFU, ZBTB11 / Fold change vs veh, ZBTB11 / RFU, TAMM41 / Fold change vs veh, TAMM41 / RFU, KIAA1704 /// LOC100996395 / Fold change vs veh, KIAA1704 /// LOC100996395 / RFU, ING1 / Fold change vs veh, ING1 / RFU, TRMT61B / Fold change vs veh, TRMT61B / RFU, FUBP3 / Fold change vs veh, FUBP3 / RFU, TP53 / Fold change vs veh, TP53 / RFU, TNKS2 / Fold change vs veh, TNKS2 / RFU, ZFP14 / Fold change vs veh, ZFP14 / RFU, ACTR2 / Fold change vs veh, ACTR2 / RFU, PPP3R1 / Fold change vs veh, PPP3R1 / RFU, PIK3R1 / Fold change vs veh, PIK3R1 / RFU, HNRNPA1 / Fold change vs veh, HNRNPA1 / RFU, RNF170 / Fold change vs veh, RNF170 / RFU, ZNF28 / Fold change vs veh, ZNF28 / RFU, RNGTT / Fold change vs veh, RNGTT / RFU, OGT / Fold change vs veh, OGT / RFU, BRD1 / Fold change vs veh, BRD1 / RFU, MARS / Fold change vs veh, MARS / RFU, ZNF655 / Fold change vs veh, ZNF655 / RFU, FAHD1 / Fold change vs veh, FAHD1 / RFU, BDP1 / Fold change vs veh, BDP1 / RFU, LRRCC1 / Fold change vs veh, LRRCC1 / RFU, ARID1A / Fold change vs veh, ARID1A / RFU, ZNF146 / Fold change vs veh, ZNF146 / RFU, ZNF330 / Fold change vs veh, ZNF330 / RFU, GPN3 / Fold change vs veh, GPN3 / RFU, C9orf123 / Fold change vs veh, C9orf123 / RFU, N4BP2L2 / Fold change vs veh, N4BP2L2 / RFU, ARFIP1 / Fold change vs veh, ARFIP1 / RFU, FAM179B / Fold change vs veh, FAM179B / RFU, BCL10 / Fold change vs veh, BCL10 / RFU, UHRF1BP1L / Fold change vs veh, UHRF1BP1L / RFU, BET1 / Fold change vs veh, BET1 / RFU, CNOT2 / Fold change vs veh, CNOT2 / RFU, ZNF268 / Fold change vs veh, ZNF268 / Fold change vs veh, ZNF507 / RFU, DGCR2 / Fold change vs veh, DGCR2 / RFU, WDSUB1 / Fold change vs veh, WDSUB1 / Fold change vs veh, HSP90B1 /// MIR3652 / RFU, ADSS / Fold change vs veh, ADSS / RFU, GK / Fold change vs veh, GK / RFU, ZNF148 / Fold change vs veh, ZNF148 / RFU, TAF9 / Fold change vs veh, TAF9 / RFU, SLC1A5 / Fold change vs veh, SLC1A5 / RFU, SLMO2 / Fold change vs veh, SLMO2 / RFU, ABCC4 / Fold change vs veh, ABCC4 / RFU, LOC101060439 /// RAP1B / Fold change vs veh, LOC101060439 /// RAP1B / RFU, RFX7 / Fold change vs veh, RFX7 / RFU, GTPBP10 / Fold change vs veh, GTPBP10 / RFU, CNEP1R1 / Fold change vs veh, CNEP1R1 / RFU, BIVM-ERCC5 /// ERCC5 / Fold change vs veh, BIVM-ERCC5 /// ERCC5 / RFU, ILF3 / Fold change vs veh, ILF3 / RFU 11762660_at / Fold change /veh 11762660_at / RFU VCAN (11757783_s_at) / Fold change /veh VCAN (11757783_s_at) / RFU DDX43 (11728927_at) / Fold change /veh DDX43 (11728927_at) / RFU KRT8 (11758188_x_at) / Fold change /veh KRT8 (11758188_x_at) / RFU NKD1 (11759106_at) / Fold change /veh NKD1 (11759106_at) / RFU SRD5A1 (11742802_a_at) / Fold change /veh SRD5A1 (11742802_a_at) / RFU TPSAB1 /// TPSB2 (11721975_s_at) / Fold change /veh TPSAB1 /// TPSB2 (11721975_s_at) / RFU GSTM3 (11746129_a_at) / Fold change /veh GSTM3 (11746129_a_at) / RFU IL23R (11737362_x_at) / Fold change /veh IL23R (11737362_x_at) / RFU TMEM51 (11727254_a_at) / Fold change /veh TMEM51 (11727254_a_at) / RFU PIWIL2 (11732686_x_at) / Fold change /veh PIWIL2 (11732686_x_at) / RFU ORM1 (11744905_x_at) / Fold change /veh ORM1 (11744905_x_at) / RFU CCDC152 (11743942_at) / Fold change /veh CCDC152 (11743942_at) / RFU ECM1 (11717891_a_at) / Fold change /veh ECM1 (11717891_a_at) / RFU IL23R (11748794_a_at) / Fold change /veh IL23R (11748794_a_at) / RFU TNFAIP8L3 (11732012_x_at) / Fold change /veh TNFAIP8L3 (11732012_x_at) / RFU MBOAT4 (11741988_at) / Fold change /veh MBOAT4 (11741988_at) / RFU 11764193_at / Fold change /veh 11764193_at / RFU TMEM53 (11763286_at) / Fold change /veh TMEM53 (11763286_at) / RFU MAGEB2 (11727129_at) / Fold change /veh MAGEB2 (11727129_at) / RFU TMEM200A (11744735_a_at) / Fold change /veh TMEM200A (11744735_a_at) / RFU CCDC152 (11751479_a_at) / Fold change /veh CCDC152 (11751479_a_at) / RFU FAM211A (11726209_a_at) / Fold change /veh FAM211A (11726209_a_at) / RFU RGS16 (11746705_a_at) / Fold change /veh RGS16 (11746705_a_at) / RFU VCAN (11755009_s_at) / Fold change /veh VCAN (11755009_s_at) / RFU RHOB (11743442_s_at) / Fold change /veh RHOB (11743442_s_at) / RFU RGS16 (11720943_a_at) / Fold change /veh RGS16 (11720943_a_at) / RFU RGS16 (11720944_at) / Fold change /veh RGS16 (11720944_at) / RFU, VPS4B / Fold change vs veh, VPS4B / RFU, CREB1 / Fold change vs veh, CREB1 / RFU, DNAJC13 / Fold change vs veh, DNAJC13 / RFU, GNAQ / Fold change vs veh, GNAQ / RFU, CDK5R1 / Fold change vs veh, CDK5R1 / RFU, ZRANB3 / Fold change vs veh, ZRANB3 / RFU, CUL4A / Fold change vs veh, CUL4A / RFU, CCNY / Fold change vs veh, CCNY / RFU, UFL1 / Fold change vs veh, UFL1 / RFU, COG3 / Fold change vs veh, COG3 / RFU, DIAPH2 / Fold change vs veh, DIAPH2 / RFU, SKA2 / Fold change vs veh, SKA2 / RFU, AFF3 / Fold change vs veh, AFF3 / RFU, LMF1 / Fold change vs veh, LMF1 / RFU, IPO11 / Fold change vs veh, IPO11 / RFU, DFFB / Fold change vs veh, DFFB / RFU, FOXP1 / Fold change vs veh, FOXP1 / RFU, CARD8 / Fold change vs veh, CARD8 / RFU, STRN3 / Fold change vs veh, STRN3 / RFU, ADK / Fold change vs veh, ADK / RFU, RASSF2 / Fold change vs veh, RASSF2 / RFU, WIPF1 / Fold change vs veh, WIPF1 / RFU, LARP1B / Fold change vs veh, LARP1B / RFU, RASA1 / Fold change vs veh, RASA1 / RFU, RB1 / Fold change vs veh, RB1 / RFU, PPFIA1 / Fold change vs veh, PPFIA1 / RFU, MAT2A / Fold change vs veh, MAT2A / RFU, CCT5 / Fold change vs veh, CCT5 / RFU, WDR92 / Fold change vs veh, WDR92 / RFU, CUX1 / Fold change vs veh, CUX1 / RFU, TTC7A / Fold change vs veh, TTC7A / RFU, TMEM135 / Fold change vs veh, TMEM135 / RFU, DEPTOR / Fold change vs veh, DEPTOR / RFU, CPM / Fold change vs veh, CPM / RFU, DNAJB6 / Fold change vs veh, DNAJB6 / RFU, CACNA2D3 / Fold change vs veh, CACNA2D3 / RFU, DTX4 / Fold change vs veh, DTX4 / RFU, TFCP2 / Fold change vs veh, TFCP2 / RFU, GMCL1 /// GMCL1P1 / Fold change vs veh, GMCL1 /// GMCL1P1 / RFU, AEBP2 / Fold change vs veh, AEBP2 / RFU, SNHG1 /// SNORD22 /// SNORD25 /// SNORD26 /// SNORD27 /// SNORD28 /// SNORD29 /// SNORD31 / Fold change vs veh, SNHG1 /// SNORD22 /// SNORD25 /// SNORD26 /// SNORD27 /// SNORD28 /// SNORD29 /// SNORD31 / Fold change (Aza/veh), C12orf56 (ProbeSet 11735607_a_at) / Fold change (ACY-1035/veh), C12orf56 (ProbeSet 11735607_a_at) / Fold change (Aza/veh), FGFR1OP (ProbeSet 11751329_s_at) / Fold change (ACY-1035/veh), FGFR1OP (ProbeSet 11751329_s_at) / Fold change (Aza/veh), VPS36 (ProbeSet 11739960_a_at) / Fold change (ACY-1035/veh), VPS36 (ProbeSet 11739960_a_at) / RFU SYPL1 (11715823_x_at) / Fold change /veh SYPL1 (11715823_x_at) / RFU IGFBP7 (11715501_s_at) / Fold change /veh IGFBP7 (11715501_s_at) / RFU REEP3 (11722064_at) / Fold change /veh REEP3 (11722064_at) / RFU IGLL1 (11728026_x_at) / Fold change /veh IGLL1 (11728026_x_at): dose or concentration left out as unconfirmed
Settings: ProbeSet 11722022_s_at; LIST D

Nc1ccc(-c2cccs2)cc1NC(=O)c1ccc2c(c1)cc(C1CC1)n2CCN1CCOCC1 [ACY-1035]
RFU, CDK5R1: 47.94 RFU
